Experimental data: patent US6355799B1, “Substituted benzene compounds, process for their preparation, and herbicidal and defoliant compositions containing them” (ISK Americas Incorporated, priority 1997, dated 2002)

Columns and labels:
Type in all cases: in vivo
[1] = tested on: johnsongrass (Sorghum halepense, SORHA); test: Pre-emerge test, greenhouse herbicide activity screening; conditions: for phytotoxicity rating SORHA: pre-emerge, 14 days after application, scale 0-100; for Pre-emerge Herbicidal Activity SORHA: phytotoxicity rating 0-100, 14 days after application
In short: (§1)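 Fourteen days after spraying, crop and weed injury was graded visually from 0, no effect, to 100, every plant dead. Test substances were dissolved in acetone and applied at 15–1000 g ai/ha with a flat-fan nozzle. Application was either pre-emergence, one day after sowing, or post-emergence at the 2–3 leaf stage.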

[2] = tested on: green foxtail (Setaria viridis, SETVI); test: as above; conditions: for phytotoxicity rating SETVI: pre-emerge, 14 days after application, scale 0-100; for Pre-emerge Herbicidal Activity SETVI: phytotoxicity rating 0-100, 14 days after application
In short: as §1

[3] = tested on: large crabgrass (Digitaria sanguinalis, DIGSA); test: as above; conditions: for phytotoxicity rating DIGSA: pre-emerge, 14 days after application, scale 0-100; for Pre-emerge Herbicidal Activity DIGSA: phytotoxicity rating 0-100, 14 days after application
In short: as §1

[4] = tested on: velvetleaf (Abutilon theophrasti, ABUTH); test: as above; conditions: for phytotoxicity rating ABUTH: pre-emerge, 14 days after application, scale 0-100; for Pre-emerge Herbicidal Activity ABUTH: phytotoxicity rating 0-100, 14 days after application
In short: as §1

[5] = tested on: sicklepod (Cassia obtusifolia, CASOB); test: as above; conditions: for phytotoxicity rating CASOB: pre-emerge, 14 days after application, scale 0-100; for Pre-emerge Herbicidal Activity CASOB: phytotoxicity rating 0-100, 14 days after application
In short: as §1

[6] = tested on: ivyleaf morningglory (Ipomoea hederacea, IPOHE); test: as above; conditions: for phytotoxicity rating IPOHE: pre-emerge, 14 days after application, scale 0-100; for Pre-emerge Herbicidal Activity IPOHE: phytotoxicity rating 0-100, 14 days after application
In short: as §1

[7] = tested on: lambsquarters (Chenopodium album, CHEAL); test: as above; conditions: for phytotoxicity rating CHEAL: pre-emerge, 14 days after application, scale 0-100; for Pre-emerge Herbicidal Activity CHEAL: phytotoxicity rating 0-100, 14 days after application
In short: as §1

[8] = tested on: barnyardgrass (Echinochloa crus-galli, ECHCG); test: as above; conditions: for phytotoxicity rating ECHCG: pre-emerge, 14 days after application, scale 0-100; for Pre-emerge Herbicidal Activity ECHCG: phytotoxicity rating 0-100, 14 days after application
In short: as §1

[9] = tested on: upland rice (Oryza sp., var. Tebonnet, RICE); test: Post-emerge test, crop safety; conditions: post-emerge, 14 days after application, rating scale 0-100
In short: as §1

[10] = tested on: field corn (Zea mays L., var. Dekalb 535, CORN); test: Post-emerge test, crop safety; conditions: post-emerge, 14 days after application, rating scale 0-100
In short: as §1

[11] = tested on: johnsongrass (Sorghum halepense, SORHA); test: Post-emerge test, greenhouse herbicide activity screening; conditions: post-emerge, 14 days after application, rating scale 0-100
In short: (§2)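 Rating: 0–100 visual injury, 14 DAA. Application: acetone, 187 l/ha, 15–1000 g ai/ha, flat-fan track sprayer with nozzle 40–45 cm above soil or canopy. Post-emerge runs used 0.25% v/v surfactant on 2–3 leaf plants.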

[12] = tested on: green foxtail (Setaria viridis, SETVI); test: as above; conditions: post-emerge, 14 days after application, rating scale 0-100
In short: as §2

[13] = tested on: large crabgrass (Digitaria sanguinalis, DIGSA); test: as above; conditions: post-emerge, 14 days after application, rating scale 0-100
In short: as §2

[14] = tested on: velvetleaf (Abutilon theophrasti, ABUTH); test: as above; conditions: post-emerge, 14 days after application, rating scale 0-100
In short: as §2

[15] = tested on: sicklepod (Cassia obtusifolia, CASOB); test: as above; conditions: post-emerge, 14 days after application, rating scale 0-100
In short: as §2

[16] = tested on: ivyleaf morningglory (Ipomoea hederacea, IPOHE); test: as above; conditions: post-emerge, 14 days after application, rating scale 0-100
In short: as §2

[17] = tested on: lambsquarters (Chenopodium album, CHEAL); test: as above; conditions: post-emerge, 14 days after application, rating scale 0-100
In short: as §2

[18] = tested on: barnyardgrass (Echinochloa crus-galli, ECHCG); test: as above; conditions: post-emerge, 14 days after application, rating scale 0-100
In short: as §2

[19] = tested on: redroot pigweed (Amaranthus retroflexus, AMARE); test: as above; conditions: post-emerge, 14 days after application, rating scale 0-100
In short: as §2

[20] = tested on: redroot pigweed (Amaranthus retroflexus, AMARE); test: Pre-emerge test, greenhouse herbicide activity screening; conditions: for phytotoxicity rating AMARE: pre-emerge, 14 days after application, scale 0-100; for Pre-emerge Herbicidal Activity AMARE: phytotoxicity rating 0-100, 14 days after application
In short: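 Herbicidal damage is scored 0 (none) to 100 (complete plant death) two weeks after a simulated field spray. Rates span 15–1000 g ai/ha, delivered in acetone at 187 l/ha. For post-emergence treatments, plants have 2–3 leaves and the spray carries 0.25% v/v non-ionic surfactant.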

[21] = tested on: upland rice (Oryza sp., var. Tebonnet, RICE); test: Pre-emerge test, crop safety; conditions: for phytotoxicity rating RICE (crop damage): pre-emerge, 14 days after application, scale 0-100; for Pre-emerge Herbicidal Activity RICE: crop damage rating 0-100, 14 days after application
In short: as §2

[22] = tested on: field corn (Zea mays L., var. Dekalb 535, CORN); test: Pre-emerge test, crop safety; conditions: for phytotoxicity rating CORN (crop damage): pre-emerge, 14 days after application, scale 0-100; for Pre-emerge Herbicidal Activity CORN: crop damage rating 0-100, 14 days after application
In short: as §2

COc1c(C#N)cc(F)c(-n2c(=O)cc(C(F)(F)F)n(C)c2=O)c1NC(=O)C=Cc1ccccc1 [2-179]
phytotoxicity rating SORHA ([1]; 63 g ai/ha): 30
phytotoxicity rating SORHA ([1]; 250 g ai/ha): 95
phytotoxicity rating SETVI ([2]; 63 g ai/ha): 50
phytotoxicity rating SETVI ([2]; 250 g ai/ha): 90
phytotoxicity rating DIGSA ([3]; 63 g ai/ha): 20
phytotoxicity rating DIGSA ([3]; 250 g ai/ha): 95
phytotoxicity rating ABUTH ([4]; 63 g ai/ha): 100
phytotoxicity rating ABUTH ([4]; 250 g ai/ha): 100
phytotoxicity rating CASOB ([5]; 63 g ai/ha): 30
phytotoxicity rating CASOB ([5]; 250 g ai/ha): 100
phytotoxicity rating IPOHE ([6]; 63 g ai/ha): 60
phytotoxicity rating IPOHE ([6]; 250 g ai/ha): 70
phytotoxicity rating CHEAL ([7]; 63 g ai/ha): 100
phytotoxicity rating CHEAL ([7]; 250 g ai/ha): 100
phytotoxicity rating ECHCG ([8]; 63 g ai/ha): 20
phytotoxicity rating ECHCG ([8]; 250 g ai/ha): 85
RICE phytotoxicity rating (crop damage) ([9]; 63 g ai/ha): 30
RICE phytotoxicity rating (crop damage) ([9]; 250 g ai/ha): 60
CORN phytotoxicity rating (crop damage) ([10]; 63 g ai/ha): 15
CORN phytotoxicity rating (crop damage) ([10]; 250 g ai/ha): 15
SORHA phytotoxicity rating ([11]; 63 g ai/ha): 10
SETVI phytotoxicity rating ([12]; 63 g ai/ha): 30
SETVI phytotoxicity rating ([12]; 250 g ai/ha): 55
DIGSA phytotoxicity rating ([13]; 63 g ai/ha): 0
DIGSA phytotoxicity rating ([13]; 250 g ai/ha): 50
ABUTH phytotoxicity rating ([14]; 63 g ai/ha): 100
ABUTH phytotoxicity rating ([14]; 250 g ai/ha): 100
CASOB phytotoxicity rating ([15]; 63 g ai/ha): 80
CASOB phytotoxicity rating ([15]; 250 g ai/ha): 100
IPOHE phytotoxicity rating ([16]; 63 g ai/ha): 80
IPOHE phytotoxicity rating ([16]; 250 g ai/ha): 100
CHEAL phytotoxicity rating ([17]; 63 g ai/ha): 80
CHEAL phytotoxicity rating ([17]; 250 g ai/ha): 100
ECHCG phytotoxicity rating ([18]; 63 g ai/ha): 70
ECHCG phytotoxicity rating ([18]; 250 g ai/ha): 50
AMARE phytotoxicity rating ([19]; 63 g ai/ha): 100
AMARE phytotoxicity rating ([19]; 250 g ai/ha): 100
phytotoxicity rating AMARE ([20]; 63 g ai/ha): 100
phytotoxicity rating AMARE ([20]; 250 g ai/ha): 100
phytotoxicity rating RICE (crop damage) ([21]; 63 g ai/ha): 20
phytotoxicity rating RICE (crop damage) ([21]; 250 g ai/ha): 60
phytotoxicity rating CORN (crop damage) ([22]; 63 g ai/ha): 0
phytotoxicity rating CORN (crop damage) ([22]; 250 g ai/ha): 10

CCOC(=O)COc1c(Cl)cc(F)c(-n2c(=O)cc(C(F)(F)F)n(C)c2=O)c1NC(=O)c1ccc2ccccc2c1 [2-189]
Pre-emerge Herbicidal Activity SORHA ([1]; 40.5 g ai/ha): 0
Pre-emerge Herbicidal Activity SORHA ([1]; 162 g ai/ha): 0
Pre-emerge Herbicidal Activity SETVI ([2]; 40.5 g ai/ha): 0
Pre-emerge Herbicidal Activity SETVI ([2]; 162 g ai/ha): 0
Pre-emerge Herbicidal Activity DIGSA ([3]; 40.5 g ai/ha): 0
Pre-emerge Herbicidal Activity DIGSA ([3]; 162 g ai/ha): 0
Pre-emerge Herbicidal Activity ABUTH ([4]; 40.5 g ai/ha): 70
Pre-emerge Herbicidal Activity ABUTH ([4]; 162 g ai/ha): 100
Pre-emerge Herbicidal Activity CASOB ([5]; 40.5 g ai/ha): 0
Pre-emerge Herbicidal Activity CASOB ([5]; 162 g ai/ha): 10
Pre-emerge Herbicidal Activity IPOHE ([6]; 40.5 g ai/ha): 0
Pre-emerge Herbicidal Activity IPOHE ([6]; 162 g ai/ha): 20
Pre-emerge Herbicidal Activity CHEAL ([7]; 40.5 g ai/ha): 100
Pre-emerge Herbicidal Activity CHEAL ([7]; 162 g ai/ha): 100
Pre-emerge Herbicidal Activity ECHCG ([8]; 40.5 g ai/ha): 0
Pre-emerge Herbicidal Activity ECHCG ([8]; 162 g ai/ha): 0
RICE phytotoxicity rating (crop damage) ([9]; 40.5 g ai/ha): 0
RICE phytotoxicity rating (crop damage) ([9]; 162 g ai/ha): 5
CORN phytotoxicity rating (crop damage) ([10]; 40.5 g ai/ha): 0
CORN phytotoxicity rating (crop damage) ([10]; 162 g ai/ha): 5
SORHA phytotoxicity rating ([11]; 40.5 g ai/ha): 0
SORHA phytotoxicity rating ([11]; 162 g ai/ha): 0
SETVI phytotoxicity rating ([12]; 40.5 g ai/ha): 0
SETVI phytotoxicity rating ([12]; 162 g ai/ha): 0
DIGSA phytotoxicity rating ([13]; 40.5 g ai/ha): 0
DIGSA phytotoxicity rating ([13]; 162 g ai/ha): 0
ABUTH phytotoxicity rating ([14]; 40.5 g ai/ha): 85
ABUTH phytotoxicity rating ([14]; 162 g ai/ha): 100
CASOB phytotoxicity rating ([15]; 40.5 g ai/ha): 40
CASOB phytotoxicity rating ([15]; 162 g ai/ha): 60
IPOHE phytotoxicity rating ([16]; 40.5 g ai/ha): 60
IPOHE phytotoxicity rating ([16]; 162 g ai/ha): 100
CHEAL phytotoxicity rating ([17]; 40.5 g ai/ha): 100
CHEAL phytotoxicity rating ([17]; 162 g ai/ha): 100
ECHCG phytotoxicity rating ([18]; 40.5 g ai/ha): 0
ECHCG phytotoxicity rating ([18]; 162 g ai/ha): 10
AMARE phytotoxicity rating ([19]; 40.5 g ai/ha): 100
AMARE phytotoxicity rating ([19]; 162 g ai/ha): 100
Pre-emerge Herbicidal Activity AMARE ([20]; 40.5 g ai/ha): 95
Pre-emerge Herbicidal Activity AMARE ([20]; 162 g ai/ha): 90
Pre-emerge Herbicidal Activity RICE ([21]; 40.5 g ai/ha): 0
Pre-emerge Herbicidal Activity RICE ([21]; 162 g ai/ha): 0
Pre-emerge Herbicidal Activity CORN ([22]; 40.5 g ai/ha): 0
Pre-emerge Herbicidal Activity CORN ([22]; 162 g ai/ha): 0
